Results: paper PMC5835976, “Synthesis, gallium labelling and characterization of P04087, a functionalized phosphatidylserine-binding peptide” (EJNMMI Radiopharmacy and Chemistry, 2017)
Where no end group is shown, it is not given here.

Tests used:
[1] = compared with Ga-P04087; no reference given for the value; cited from earlier work
Experimental: Affinities of cold-labelled peptide (Ga-P04087) and the peptide of reference (R824) for phosphatidylserine were evaluated by enzyme-linked immunosorbent assay. A competitive binding assay procedure was performed: A 96-well plate (MICROLON plaque 200, med. Binding, F-bottom, GREINER) was coated with 200 μL/well of phosphatidylserine (PS) (Avanti Polar Lipids) (dissolved in ethanol (SIGMA ALDRICH) for a final concentration of 100 μg/mL).

[2] = tested on: vegetations; details: vegetations of experimental endocarditis; ref Rouzet et al. [2008]; cited from earlier work
Excerpt: Otherwise, the presence of ^67Ga-P04087 uptake on autoradiography in contrast to the rapid degradation observed in vitro without the metalloprotease inhibitor, point out the discrepancies that could occur between in vitro and in vivo degradation even when low tracer amounts are used in vitro in order to avoid saturation of enzymes (García-Garayoa et al. [2001]). These positive autoradiography results extend the findings of histology experimentations on the binding of the agent to PS. However, comparatively to radiolabelled Annexin A5, the contrast was not sufficient to provide a detectable sig ...

[3] = Peptide stability in Hank's medium with 10% foetal calf serum; type: in vitro ADME; details: 37 °C; for Stability result: Hanks + 10% FCS, 2 h incubation, in darkness, triplicate, sampled at 0, 1 h, 2 h, TCA precipitation, LC/ES/MS; for Stability in Hanks media supplied or not with foetal calf serum: Hanks media with or without FCS, two hours
Experimental: A 100 μL solutions of R824 (PGDLSR), R825 (DAHSFS) and R826 (LIKKPF) in Hank’s medium and 10% FCS (foetal calf serum) were prepared and incubated (in triplicate) for 2 h at 37 °C and in complete darkness. At 0, 1 h and 2 h, 100 μL were sampled from each tube; 200 μL of 0.6 M trichloroacetic acid were added. The mixtures were then centrifuged at 20,000 g for 10 min at 4 °C. One microliter of each supernatant was then analyzed by LC/ES/MS.

[4] = type: in vitro ADME, human
Experimental: The metabolic stability was checked in human serum at 37 °C in presence and in absence of 1,10 phenanthroline monohydrate, a well-known metalloprotease inhibitor (Wijayanti et al. [2006]) at appropriate periods of time (0, 15, 30, 60 min). In two different tubes containing 200 μL of human serum plasma previously incubated at 37 °C was added 40 μL of ^67Ga-P04087 labelling solution. 4 μL of 1 mg/mL of 1,10 phenanthroline monohydrate in ethanol was added only in one of the two tubes. At 0, 15, 30 and 60 min, 20 μL aliquots were collected and proteins were precipitated with 200 μL of methanol. Samples were then filtered with 0.2 μm Whatman filter (13 mm) and the methanol was then evaporated with a stream of nitrogen. The resulting dry residue was dissolved in 200 μL water and then analyzed by C18-radio-HPLC using the equipment mentioned above.

[5] = tested on: phosphatidylserine in valve vegetations; assay: In vivo binding to PS in rat model of infective endocarditis (SPECT/CT, autoradiography); details: intravenous injection, intense signal in the bladder

Molecule	Stability result [3]	Stability in Hanks media supplied or not with foetal calf serum [3]	further results
99mTc-AnnexinV: technetium 99m-labelled Annexin V, protein imaging agent targeting PS			affinity to PS [1]: 6*10^−9 M; uptake ratio for autoradiography [2]: 2; uptake ratio for in vivo acquisitions [2]: 1.3
DAHSFS [Peptide R825]	Stable	stable	
CC(C)C[C@H](NC(=O)[C@H](CC(=O)O)NC(=O)CNC(=O)[C@@H]1CCCN1C(=O)CCNC(=O)CCC(C(=O)O)N1CCN(CC(=O)O)CCN(CC(=O)O)CC1)C(=O)N[C@@H](CO)C(=O)N[C@@H](CCCNC(=N)N)C(=O)O (some centres unmarked) [Peptide 67Ga-P04087, metal not drawn]			Radiochemical purity in human serum with 1,10 phenanthroline monohydrate [4]: 100%; Renal elimination on SPECT/CT [5]: rapid renal elimination
PGDLSR [Peptide R824]	Stable	stable	
LIKKPF [Peptide R826]	Total degradation 1 h after the start of incubation	quickly degraded	
